Results reported in the supplement of paper PMC10331698.
± gives the standard deviation of the averaged measurements.

Key:
Assay in all cases: level (log10 ratio to DMSO vehicle control); higher = higher biomarker level / cell amount than vehicle control
[1] = compound: OCCCCC(F)(F)C(F)(F)C(F)(F)C(F)(F)F [4:4 Fluorotelomer alcohol]; settings: in DMSO
Procedure: (§1)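 BioMAP Diversity Plus panel of 12 human primary cell co-culture systems (3C, 4H, LPS, SAg, BT, BF4T, BE3C, CASM3C, HDF3CGF, KF3CT, MyoF, Mphg). Compounds were added 1 h before stimulation and left for 24 h (MyoF 48 h; BT 72 h for soluble read-outs or 6 d for IgG). Biomarkers were read by ELISA, cytotoxicity by SRB, PBMC viability and proliferation by Alamar Blue. Each well value was divided by the mean of 8 DMSO control wells on the same plate and log10 transformed; duplicate blinded samples were tested at 4 concentrations.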

Tetrafluorosuccinic acid = compound: O=C(O)C(F)(F)C(F)(F)C(=O)O [Tetrafluorosuccinic acid]; settings: in DMSO
Procedure: as §1

Methotrexate = compound: CN(Cc1cnc2nc(N)nc(N)c2n1)c1ccc(C(=O)N[C@@H](CCC(=O)O)C(=O)O)cc1 [Methotrexate]; settings: in DMSO
Procedure: as §1

[2] = compound: OCCC(F)(F)C(F)(F)C(F)(F)C(F)(F)C(F)(F)C(F)(F)C(F)(F)C(F)(F)F [8:2 Fluorotelomer alcohol]; settings: 6700 nM; in DMSO
Procedure: as §1

Perfluorooctanoic acid = compound: O=C(O)C(F)(F)C(F)(F)C(F)(F)C(F)(F)C(F)(F)C(F)(F)C(F)(F)F [Perfluorooctanoic acid]; settings: in DMSO
Procedure: as §1

[3] = compound: FC(F)(F)COC(OCC(F)(F)F)OCC(F)(F)F [tris(Trifluoroethoxy)methane]; settings: in DMSO
Procedure: as §1

[4] = compound: OCC(F)(F)C(F)(F)C(F)(F)C(F)(F)C(F)(F)C(F)(F)C(F)(F)C(F)(F)CO [1H,1H,10H,10H-Perfluorodecane-1,10-diol]; settings: in DMSO
Procedure: as §1

| Test System | level (log10) ([1]; 6700 nM) | level (log10) ([1]; 20000 nM) | level (log10) ([1]; 60000 nM) | level (log10) (Tetrafluorosuccinic acid; 6700 nM) | level (log10) (Tetrafluorosuccinic acid; 20000 nM) | level (log10) (Tetrafluorosuccinic acid; 60000 nM) | level (log10) (Methotrexate; 1500 nM) | level (log10) (Methotrexate; 4400 nM) | level (log10) (Methotrexate; 13000 nM) | level (log10) (Methotrexate; 40000 nM) | level (log10) [2] | level (log10) (Perfluorooctanoic acid; 6700 nM) | level (log10) (Perfluorooctanoic acid; 20000 nM) | level (log10) (Perfluorooctanoic acid; 60000 nM) | level (log10) ([3]; 6700 nM) | level (log10) ([3]; 20000 nM) | level (log10) ([3]; 60000 nM) | level (log10) ([4]; 6700 nM) | level (log10) ([4]; 20000 nM) | level (log10) ([4]; 60000 nM) |
| --- | --- | --- | --- | --- | --- | --- | --- | --- | --- | --- | --- | --- | --- | --- | --- | --- | --- | --- | --- | --- |
| KF3CT:IL-1alpha | 0.0145 ± 0.029 | 0.005 ± 0.042 | 0.019 ± 0.03 | -0.012 ± 0.0042 | -0.0385 ± 0.019 | 0.007 ± 0.023 | -0.0145 ± 0.013 | -0.0225 ± 0.032 | -0.002 ± 0.052 | -0.0145 ± 0.039 | -0.0545 ± 0.029 | 0.018 ± 0.0057 | 0.012 ± 0.0014 | -0.0395 ± 0.0035 | -0.0045 ± 0.0078 | -0.0055 ± 0.0092 | 0.0055 ± 0.019 | 0.005 ± 0.027 | -0.01 ± 0.021 | 0.109 |
| KF3CT:CXCL8/IL-8 | 0.0185 ± 0.037 | -0.006 ± 0.023 | 0.0205 ± 0.036 | -0.029 ± 0.011 | -0.031 ± 0.0042 | -0.0175 ± 0.026 | 0.002 ± 0.017 | 0 ± 0.021 | -0.0085 ± 0.023 | 0.014 ± 0.011 | 0.0035 ± 0.0035 | 0.015 ± 0.0057 | 0.0225 ± 0.0064 | -0.011 ± 0.0099 | 0.002 ± 0.011 | 0.007 ± 0.013 | 0.012 ± 0.0014 | -0.006 ± 0.021 | 0.0055 ± 0.028 | -0.097 |
| lMphg:CCL3/MIP-1alpha | -0.0205 ± 0.0035 | -0.041 ± 0.021 | -0.0365 ± 0.022 | -0.0145 ± 0.025 | -0.0145 ± 0.00071 | -0.001 ± 0.023 | -0.0375 ± 0.016 | -0.0305 ± 0.00071 | 0.0035 ± 0.012 | 0.029 ± 0.027 | 0.079 ± 0.011 | 0.039 ± 0.033 | 0.0295 ± 0.066 | -0.0365 ± 0.067 | -0.03 ± 0.021 | -0.035 ± 0.024 | -0.0245 ± 0.018 | -0.0375 ± 0.005 | -0.02 ± 0.016 | -0.473 |
| MyoF:MMP-1 | 0.002 ± 0.0057 | 0.007 ± 0.023 | 0.032 ± 0.076 | -0.006 ± 0.023 | 0.0025 ± 0.0021 | 0.0535 ± 0.059 | 0.002 ± 0.027 | -0.017 ± 0.02 | -0.004 ± 0.018 | 0.0175 ± 0.0021 | -0.0175 ± 0.011 | -0.032 | -0.018 ± 0.038 | 0.043 ± 0.086 | -0.0085 ± 0.039 | -0.0145 ± 0.021 | 0.02 ± 0.044 | -0.0415 ± 0.013 | -0.0275 ± 0.012 | 0.284 |
| HDF3CGF:CXCL8/IL-8 | -0.0065 ± 0.0035 | 0.01 ± 0.0071 | 0.01 ± 0.0014 | -0.01 ± 0.0085 | -0.004 ± 0.0085 | -0.0055 ± 0.0078 | -0.0035 ± 0.011 | -0.0075 ± 0.0064 | 0.0145 ± 0.0035 | 0.004 ± 0.0085 | 0.005 ± 0.0099 | 0.0015 ± 0.0021 | 0.002 ± 0.0014 | 0.015 ± 0.014 | -0.003 ± 0.0028 | -0.0005 ± 0.005 | 0.002 ± 0.0099 | 0.004 ± 0.013 | -0.0055 ± 0.021 | -0.081 |
| lMphg:sIL-10 | -0.096 ± 0.11 | -0.032 ± 0.0028 | -0.014 ± 0.041 | -0.0085 ± 0.016 | -0.0265 ± 0.097 | 0.0415 ± 0.11 | 0.076 ± 0.03 | 0.05 ± 0.011 | 0.0485 ± 0.023 | 0.014 ± 0.028 | -0.17 ± 0.013 | -0.0525 ± 0.032 | -0.0035 ± 0.11 | -0.219 ± 0.051 | -0.045 ± 0.075 | -0.061 ± 0.037 | -0.0855 ± 0.091 | -0.0265 ± 0.06 | -0.357 ± 0.27 | -1.1 |
| CASM3C:SRB | -0.0045 ± 0.00071 | 0.0015 ± 0.012 | -0.0025 ± 0.016 | -0.012 ± 0.0028 | -0.005 ± 0.0014 | -0.0105 ± 0.005 | 0.001 | -0.0095 ± 0.0064 | -0.0055 ± 0.0035 | -0.0105 ± 0.011 | -0.014 ± 0.0057 | -0.005 ± 0.0042 | 0.0005 ± 0.00071 | 0.0095 ± 0.00071 | -0.0005 ± 0.011 | -0.0065 ± 0.013 | -0.0095 ± 0.013 | 0.0015 ± 0.0021 | -0.002 ± 0.0099 | -0.067 |
